The experiment deals with hCINAP (Homo sapiens, UniProt Q9Y3D8). The experiment is described as follows: coupled PK/LDH adenylate kinase assay. It counts as biochemical.
hCINAP, sequence (Q9Y3D8 whole entry): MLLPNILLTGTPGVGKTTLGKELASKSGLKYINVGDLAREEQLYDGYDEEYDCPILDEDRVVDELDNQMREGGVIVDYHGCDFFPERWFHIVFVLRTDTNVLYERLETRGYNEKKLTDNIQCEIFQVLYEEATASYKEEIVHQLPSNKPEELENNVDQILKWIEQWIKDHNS

As a reminder, the IC50 is the concentration needed to halve the response being measured. Low values mean higher potency, high ones lower potency. `Nc1ncnc2c1ncn2[C@@H]1O[C@H](COP(=O)(O)OP(=O)(O)OP(=O)(O)OP(=O)(O)OP(=O)(O)OC[C@H]2O[C@@H](n3cnc4c(N)ncnc43)[C@H](O)[C@@H]2O)[C@@H](O)[C@H]1O` [AP5A]: 27 ± 2.93 nM corresponded to half-maximal inhibition (IC50).
